From patent publication US11485728B2, “Small molecules for the treatment of autoimmune diseases and cancer” (Athos Therapeutics, Inc., priority 2020, dated 2022)

Assays:
Type in all cases: in vitro ADME
[1] = In-vitro half-life in human liver microsomes; conditions: Human liver microsomes 0.5 mg/mL; 1 μg/mL drug; NRS; read-out: Metabolic Half-life
Experimental: (§1) In each of the species (human, rat, mouse) of liver matrix to be tested, a working concentration of 2 μg/mL was prepared of each test article from the 0.5 mg/mL DMSO stock solution by adding 3 μL of 0.5 mg/mL test article stock solution to 747 μL of the 1 mg/mL liver matrix. Incubation was performed at 37±2° C. with gentle, continuous mixing in shaking water bath in 2.0 mL-well capacity 96-Deepwell plates (96-DWP). Samples were retrieved in duplicate at the following time points: 0, 5, 10, 15, 30 and 60 minutes. The final mixture contained 1 μg/mL of drug and 0.5 mg/mL of liver matrix. First, 50 μL of test articles in liver matrix was added to the 96-DWP and pre-warmed the mixture in the 96-DWP for 2 minutes in the 37° C. water bath. The enzymatic reaction was started by the addition of 50 μL of the corresponding 2× NADPH regenerating system (NRS) cofactor solution to all sample wells and stopped by the addition of 300 μL of stop solution (acetonitrile containing 10 ng/mL Tolbutamide as an internal standard (I.Std.). The samples were agitated for 10 minutes and then centrifuged for 20 minutes at 4500 rpm. 25 μL of supernatant was diluted with 475 μL acetonitrile containing I. Std. into a new 96-DWPs for LC-MS/MS analysis.
(§2) Half-life calculations were generated and calculated by Graphpad Prism® software. The half-life of test compound was calculated based on the first-order reaction kinetics. The data was transformed to linear regression (y=log(y) where “y” axis represents the % compound remaining at any given time with respect to time 0 minutes; “x” axis represents time in minutes) in order to calculate the half-life.
(§3) A comparison of metabolic stability in time-course incubation experiments in varying species of liver can provide information of pharmacokinetic properties of drugs attributable to species-related differences in hepatic metabolism. The results of these experiments often assist in further applications such as assessing in vitro metabolite profiling and choosing relevant species for toxicology studies based on similarities relative to the metabolic stability to the human profile. For these experiments, the test compound was tested in parallel with a positive control, Dasatinab, in an enzymatic reaction solution of each species (human and rat) of liver microsomes containing a NADPH regenerating system (NRS). The final mixture contained 1 μg/mL of drug and 0.5 mg/mL of liver matrix. Incubations were performed at 37±2° C. with gentle, continuous mixing in shaking water bath in 96-Deep well plates. The stability of the test compound is monitored using fast, specific and sensitive LC/MS/MS analysis.

[2] = In-vitro half-life in mouse liver microsomes; conditions: Mouse liver microsomes 0.5 mg/mL; 1 μg/mL drug; NRS; read-out: Metabolic Half-life
Experimental: as §1, §2, §3

CYP2C19 = molecular target: T1, CYP2C19 (Homo sapiens, UniProt P33261); test: CYP-direct inhibition, CYP2C19
T1 construct: from tissue; host or cells: pooled human liver microsomes
T1 sequence (P33261 whole entry): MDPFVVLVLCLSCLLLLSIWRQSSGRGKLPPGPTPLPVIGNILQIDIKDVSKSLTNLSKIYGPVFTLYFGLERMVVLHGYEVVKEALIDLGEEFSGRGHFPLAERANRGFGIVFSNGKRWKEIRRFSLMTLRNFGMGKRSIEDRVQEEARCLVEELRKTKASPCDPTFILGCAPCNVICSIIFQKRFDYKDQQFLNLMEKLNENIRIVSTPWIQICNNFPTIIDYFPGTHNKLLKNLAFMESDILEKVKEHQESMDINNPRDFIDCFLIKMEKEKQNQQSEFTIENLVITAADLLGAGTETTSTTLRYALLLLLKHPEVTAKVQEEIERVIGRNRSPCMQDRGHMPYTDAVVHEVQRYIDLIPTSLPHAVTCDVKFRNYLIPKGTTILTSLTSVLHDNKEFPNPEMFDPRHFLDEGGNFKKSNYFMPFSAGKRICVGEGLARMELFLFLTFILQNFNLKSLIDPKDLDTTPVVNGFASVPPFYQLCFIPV
Experimental: Many drugs inhibit cytochrome P450 enzymes to cause clinically significant changes in the pharmacokinetics of other drugs. In vitro cytochrome P450 inhibition, can provide crucial information in evaluating potential clinical drug-drug interactions and is useful for focusing in vivo tests to areas of concern. The cytochrome P450 inhibition assay was developed by preparing a working cocktail solution consisting of six probe substrates 10 μM ethoxy-resorufin (CYP1A2), 100 μM rosiglitazone (CYP2C8), 50 μM diclofenac (CYP2C9), 300 μM S-mephenytoin (CYP2C19), 50 μM dextromethorphan (CYP2D6), and 20 μM midazolam (CYP3A4). A mixture solution consists of 140 uL of 0.286 mg/mL of pooled human liver microsome working solution and 20 uL working solutions of test articles, standard control inhibitors, or positive control placebo and 20 uL of substrate cocktail mixture working solution was prepared. The mixture solution was pre-warm in a gentle shaking bath at 37±2° C. for 5 minutes. The enzymatic reaction started by adding 20 uL of NRS working solution to the mixture solution and incubated for 10 minutes at 37±2° C. To stop the reaction, an addition of 400 μL cold stop solution (acetonitrile containing 50 ng/mL Tolbutamide as an internal standard (I.Std.) was added to the mixture solution. The final concentration of test article, inhibitors, substrates, and cofactors are noted in Table 0.1 below. Two individual samples were prepared for each test compound. The extracted samples were vortexed and then centrifuged at 4500 rpm for 7 minutes using Eppendorf Centrifuge 5910R. 200 uL of supernatant was diluting with 200 uL of 50% Methanol into 96-DW plate for LC/MS/MS analysis
Concentration-response plots are used to determine the effects of an inhibitor on an enzymatic reaction. A typical concentration-response plot provides fractional activity (Y axis) is plotted as a function of log inhibitor concentration (X axis). The data are fitted using a standard Sigmoidal dose-response equation which is also called a […] logistic equation. The concentration of compound that results in 50% inhibition of maximal activity is termed as the IC50 (inhibitor concentration yielding 50% inhibition). IC50 value is calculated using Prism GraphPad software, version 9. […].
Cytochrome P450 inhibition of a drug is a key factor in determining pharmacokinetic drug-drug interactions. The objective of this study was to evaluate the inhibition potential of G9a inhibitors on six (6) major human cytochrome P450 enzymes, including CYP1A2, CYP2C8, CYP2C9, CYP2C19, CYP2D6, and CYP3A4. Inhibition was determined by using a substrate cocktail and analyzing the rate of specific metabolites formation. The cytochrome P450 inhibition assay was developed using a cocktail consisting of six (6) probe substrates ethoxy-resorufin (CYP1A2), rosiglitazone (CYP2C8), diclofenac (CYP2C9), S-mephenytoin (CYP2C19), dextromethorphan (CYP2D6), and midazolam (CYP3A4). The cocktail was incubated in human liver microsome with NADPH regenerating system (NRS) in a shaking bath at 37±2° C. The formation of specific metabolites was monitored by LC/MS/MS. Test compound was added to the cocktail-liver microsome mixture at varying concentrations and its effect on cytochrome P450 activity was determined by analyzing the rate of specific metabolite formation. The percent inhibition was calculated and plotted with reference to the concentration, and the IC50 value for inhibition was derived by fitting the data with a using log(inhibitor) vs. normalized response with variable slope least squares fit by Graphpad Prism® software. […].

| half-life at 1 μg/mL [1] [h] | half-life at 1 μg/mL [2] [h] | IC50 (CYP2C19) [µM] | SMILES |
| --- | --- | --- | --- |
| > 1 | > 1 | > 100 | COc1cc2c(NC3CCS(=O)(=O)CC3)nc(N3CCCC3)nc2cc1OCCCN1CCCC1 [Compound 80, 4-((6-methoxy-2-(pyrrolidin-1-yl)-7-(3-(pyrrolidin-1-yl)propoxy)quinazolin-4-yl)amino)tetrahydro-2H-thiopyran 1,1-dioxide] |
| > 1 | 0.38 | > 100 | COc1cc2c(NC3CCOCC3)nc(N3CCN(C)CC3)nc2cc1OCCCN1CCCC1 [Compound 236, 6-methoxy-2-(4-methylpiperazin-1-yl)-7-(3-(pyrrolidin-1-yl)propoxy)-N-(tetrahydro-2H-pyran-4-yl)quinazolin-4-amine] |
| > 1 | > 1 | > 100 | COc1cc2c(NC3CCN(C(C)C)CC3)nc(C#N)nc2cc1OCCCN1CCCC1 [Compound 235, 4-((1-isopropylpiperidin-4-yl)amino)-6-methoxy-7-(3-(pyrrolidin-1-yl)propoxy)quinazoline-2-carbonitrile] |
| 0.342 | > 1 | > 100 | COc1cc2c(NC3CCS(=O)(=O)CC3)nc(N3CCN(C)CC3)nc2cc1OCCCN1CCCC1 [Compound 109, 4-((6-methoxy-2-(4-methylpiperazin-1-yl)-7-(3-(pyrrolidin-1-yl)propoxy)quinazolin-4-yl)amino)tetrahydro-2H-thiopyran 1,1-dioxide] |
| > 1 | 0.44 | > 100 | COc1cc2c(NC3CCOCC3)nc(N3CCCN(C)CC3)nc2cc1OCCCN1CCCC1 [Compound 237, 6-methoxy-2-(4-methyl-1,4-diazepan-1-yl)-7-(3-(pyrrolidin-1-yl)propoxy)-N-(tetrahydro-2H-pyran-4-yl)quinazolin-4-amine] |
| > 1 | 0.727 | 44.3 | COc1cc2c(Nc3ccncc3)nc(N3CCC(F)(F)CC3)nc2cc1OCCCN1CCCC1 [Compound 7, 2-(4,4-difluoropiperidin-1-yl)-6-methoxy-N-(pyridin-4-yl)-7-(3-(pyrrolidin-1-yl)propoxy)quinazolin-4-amine] |
| > 1 | > 1 | > 100 | COc1cc2c(NCC3CCN(C)CC3)nc(N3CCC(F)(F)CC3)nc2cc1OCCCN1CCCC1 [Compound 5, 2-(4,4-difluoropiperidin-1-yl)-6-methoxy-N-((1-methylpiperidin-4-yl)methyl)-7-(3-(pyrrolidin-1-yl)propoxy)quinazolin-4-amine] |
| > 1 | > 1 | > 100 | COCCN1CCC(Nc2nc(N3CCC(F)(F)CC3)nc3cc(OCCCN4CCCC4)c(OC)cc23)CC1 [Compound 3, 2-(4,4-difluoropiperidin-1-yl)-6-methoxy-N-(1-(2-methoxyethyl)piperidin-4-yl)-7-(3-(pyrrolidin-1-yl)propoxy)quinazolin-4-amine] |
| > 1 | > 1 | > 100 | COc1cc2c(NC3CCN(C(C)C)CC3)nc(N3CCC3)nc2cc1OCCCN1CCCC1 [Compound 234, 2-(azetidin-1-yl)-N-(1-isopropylpiperidin-4-yl)-6-methoxy-7-(3-(pyrrolidin-1-yl)propoxy)quinazolin-4-amine] |
| > 1 | > 1 | > 100 | COc1cc2c(NC3CCOCC3)nc(N3CCCC3)nc2cc1OCCCN1CCCC1 [Compound 164, 6-methoxy-2-(pyrrolidin-1-yl)-7-(3-(pyrrolidin-1-yl)propoxy)-N-(tetrahydro-2H-pyran-4-yl)quinazolin-4-amine] |
| > 1 | 0.655 | > 100 | COc1cc2c(N[C@@H]3CCCNC3)nc(N3CCCC3)nc2cc1OCCCN1CCCC1 [Compound 159, (R)-6-methoxy-N-(piperidin-3-yl)-2-(pyrrolidin-1-yl)-7-(3-(pyrrolidin-1-yl)propoxy)quinazolin-4-amine] |
| > 1 | > 1 | > 100 | COc1cc2c(NC3CCOCC3)nc(N3CCC3)nc2cc1OCCCN1CCCC1 [Compound 174, 2-(azetidin-1-yl)-6-methoxy-7-(3-(pyrrolidin-1-yl)propoxy)-N-(tetrahydro-2H-pyran-4-yl)quinazolin-4-amine] |

| SMILES | half-life at 1 μg/mL [1] [h] | half-life at 1 μg/mL [2] [h] | IC50 (CYP2C19) [µM] |
| --- | --- | --- | --- |
| COc1cc2c(NC3CCS(=O)(=O)CC3)nc(N3CCC(F)(F)CC3)nc2cc1OCCCN1CCCC1 [Compound 1, 4-((2-(4,4-difluoropiperidin-1-yl)-6-methoxy-7-(3-(pyrrolidin-1-yl)propoxy)quinazolin-4-yl)amino)tetrahydro-2H-thiopyran 1,1-dioxide] | > 1 | > 1 | > 100 |
